Experimental findings from PubChem BioAssay (NCI) are described below.

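Cultured in 96-well plates, cells were exposed to test compound for 48 hours across five concentrations. GI50 is the concentration that inhibits growth by half. TGI is the concentration that stops growth completely.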

What all share (assay): growth of human tumour cells (NCI), 48 h
For assay [1], the system named is NCI-H460 lung.
The subject of assay [2] is MCF7 breast.
In assay [3] the test system is OVCAR-5 ovarian.
The test system of assay [4] is ACHN renal.
Assay [5] relates to HOP-62 NSCLC.
Assay [6] has as its system T-47D breast.
Assay [7] has as its system CAKI-1 renal.
Assay [8] has as its system MDA-N.
Assay [9] concerns SK-OV-3 ovarian.
Assay [10] has as its system RXF 393 renal.

With `O=C1c2ccccc2-c2c1c1ccccc1c(=O)n2CCNCCNCCNCCn1c2c(c3ccccc3c1=O)C(=O)c1ccccc1-2`, the GI50 in assay [1] was 0.0707 µM; in assay [2], 0.0329 µM; in assay [3] it was 0.449 µM; in [4], 0.0536 µM; in [5], 0.0483 µM; in [6], 2.95 µM. Besides, in assay [7], the GI50 is 1.44 µM. The TGI in assay [1] was more than 100 µM; in assay [2], 0.298 µM; in assay [4] it was 0.555 µM; in assay [5], 2.45 µM; in assay [6], more than 100 µM; in [7], 4.19 µM.

On to `N#Cc1c(N2CCCC2)ncn(-c2ccccc2)c1=O`, for which the TGI in [1], in [3], in [4], in assay [8], in [5] and in assay [6] was more than 100 µM in each case. Besides, the TGI in assay [7], in [9] and in assay [10] was more than 100 µM throughout.

On to `O=c1c2cc([N+](=O)[O-])cnc2sn1-c1ccc([N+](=O)[O-])cc1`, for which the TGI in [1], in [2], in assay [3], in [4], in assay [8] and in assay [5] was more than 100 µM throughout. The TGI in assay [6] was 83.6 µM; in assay [9], more than 100 µM.

Consider `CCCCC#C[I+]c1ccccc1`, for which the TGI in [1] stood at 26.9 µM; in [3], 28 µM; in [4] it was 30.9 µM; in assay [5], 37.6 µM; in [7], 27.1 µM; in [9], 30.4 µM. In addition, in assay [10], the TGI was determined as 36.9 µM.

For the molecule `O=C1CCCc2cc3c(cc21)CC1(Cc2ccccc2C1)C3`, the TGI in assay [2] is 61.2 µM; in assay [3] it was more than 100 µM; in [4], 32.9 µM; in assay [5] it was 32.6 µM; in assay [6], 96.9 µM; in [9] it was 97.3 µM. For the same molecule, the TGI in assay [10] was determined as 82.5 µM.

On to `O=c1[nH]c(Nc2cccc(CC(F)(F)F)c2)nc2nc[nH]c12`, for which the TGI in assay [1], in [2], in assay [3], in assay [4], in [8] and in assay [5] was more than 100 µM each time. In addition, the TGI in assay [6], in assay [7] and in [9] was more than 100 µM in each case.

Turning to `CCOC(=O)CSc1c(C(=O)OCC)c(=O)n(-c2ccccc2)c(=S)n1-c1ccccc1`, the TGI in [1], in assay [2], in assay [3], in assay [4], in [8] and in assay [5] was more than 100 µM each time. Also, the TGI in assay [6], in assay [7] and in assay [9] was more than 100 µM throughout.

Take `Cc1c(O)c(O)cc[n+]1C1OC(CO)C(O)C1O` (stereo not drawn): the TGI in assay [1], in assay [3], in assay [4], in [7], in assay [9] and in assay [10] was more than 100 µM each time.

Turning to `CN1CCc2cc(N)cc3c2C1Cc1ccc(O)c(O)c1-3` (stereo not drawn), the TGI in [1] is more than 100 µM; in assay [3] it was more than 100 µM; in assay [4], 58.4 µM; in assay [8], more than 100 µM; in [5], more than 100 µM; in assay [6] it was more than 100 µM. Moreover, the TGI in assay [7], in assay [9] and in [10] was more than 100 µM each time.

For `O=c1ccc(-c2ccccc2)n[nH]1`, the TGI in assay [1], in assay [3], in assay [4], in assay [8], in assay [5] and in [6] was more than 100 µM each time. In addition, the TGI in assay [7] and in assay [10] was more than 100 µM each time.

For the molecule `O=C(NC(=O)c1ccccc1[N+](=O)[O-])Nc1ccc(Oc2ncc(Br)cn2)c(Cl)c1`, the GI50 in assay [1] is less than 0.0197 µM; in assay [5], 0.0454 µM; in assay [9] it was less than 0.0176 µM. Also, the TGI in [3] is 0.0522 µM; in assay [4] it was 0.0688 µM; in assay [8], less than 0.0159 µM; in [10], 0.0321 µM.

In the case of `ClCCN1CCC2(CC1)SSC1(CCN(CCCl)CC1)S2`, the TGI in assay [1] was more than 100 µM; in assay [2], 39.6 µM; in assay [3] it was 72 µM; in assay [4], more than 100 µM; in assay [8], more than 100 µM; in assay [5], more than 100 µM. For the same molecule, the TGI in [7] worked out at 33.4 µM; in assay [9], 98.7 µM.

Take `O=C(CCN1CCCCC1)C(=Cc1ccccc1)C(=O)CCN1CCCCC1`: the TGI in [1], in assay [2], in assay [3], in assay [5], in assay [7] and in assay [9] was more than 100 µM each time. Also, in assay [10], the TGI amounted to 34.3 µM. The GI50 in [7] is 80.4 µM; in assay [10], 16.9 µM.

Take `CCC(C(=O)O)c1ccc(OC)cc1` (stereo not drawn): the TGI in assay [1], in [3], in assay [4], in [5], in assay [7] and in assay [9] was more than 100 µM each time. The molecule further displayed a TGI in assay [10] of more than 100 µM.

Consider `C[C@]12CCC(O)CC1=CC[C@@H]1[C@@H]2CC[C@]2(C)C(=O)[C@H](n3ccnc3)C[C@@H]12` (stereo partly drawn), for which the TGI in assay [1], in [2], in assay [3], in assay [4], in assay [8] and in assay [7] was more than 100 µM throughout. In addition, the TGI in [10] is more than 100 µM.
